Assay: Acid dissociation constant (pKa) in aqueous sulfonic acid solution
Assay type: physicochemical
Settings: aqueous sulfonic acid solution titrated at 25° C. with aqueous sodium hydroxide; from pH at 50% neutralization
Method: Examples of the method for measuring pKa include a method in which an aqueous aliphatic sulfonic acid solution is titrated with a titrant such as sodium hydroxide at 25° C., and pKa is calculated from the pH value at the time point when 50% neutralization was achieved.
(7) Acid Dissociation Constant (pKa) in Aqueous Sulfonic Acid Solution
The aqueous sulfonic acid solution used in each of Examples and Comparative Examples was subjected to titration at 25° C. using an aqueous sodium hydroxide solution, and the acid dissociation constant was calculated based on the pH value at the time point when 50% neutralization was achieved.

Row | pKa | Structure (SMILES)
1 | -1.3 | CCS(=O)(=O)O [ethanesulfonic acid]
2 | 0.3 | CCCCCCCCCCCCS(=O)(=O)O [n-dodecylsulfonic acid]

Reference: patent US9850343B2, “Method for producing liquid crystalline polyester, and liquid crystalline polyester” (TORAY Industries, Inc., priority 2013, dated 2017)
